The values that follow come from patent US20200390762A1, “METHOD OF TREATING HAND-FOOT SYNDROME AND SYMPTOMS ASSOCIATED THEREWITH” (GALDERMA S.A., priority 2014, published 2020).

This experiment has as its system murine UVB-induced epidermal hyperplasia model. As to the kind of experiment: Murine UVB-induced epidermal hyperplasia model: epidermis thickness (H&E histology). The experiment is classed as in vivo, SKH1 mice. Conditions: UVB 120 mJ/cm^2. On the procedure:
The back skin of the SKH1 mice was exposed to 120 mJ/cm^2 UVB using the Biospectra system equipped with UVB sunlamps with a maximum emission peak at 312 nm. Irradiations were performed under isoflurane gaseous anesthesia. Vehicle (PEG400/EtOH/PHY (30/20/50) p/p) or brimonidine at 0.2% or 2% was administered by topical route (100 μl) on a 10 cm^2-area on the back using a micropipette. The area is located on the upper part of the back to prevent the animals from licking themselves. […]
One hour after the third topical treatment and one hour before euthanasia, mice received an i.p. injection of 5-ethynyl-2′-deoxyuridine (EdU) at 100 mg/kg. […] For epidermal thickness, two sections per animal (7 μm) were stained in H&E. Skin histology and the epidermis thickness were analyzed using image analysis (mScope 3.9, Aurora mScope) on scanned slide pictures (NanoZoomer C9600-12, Hamamatsu Photonics K.K). […] Nuclei were also stained with DAPI (5 mg/ml) diluted in Vectashield Hard Set Mounting medium for fluorescence ref: 1-1400 Vector Laboratories). The number of keratinocyte stained with Alexa Fluor® 594 was counted from digital images (NanoZoomer C9600-12, Hamamatsu Photonics K.K) and the epidermis length of each section determined using an in-house dedicated tool. […]

Counter-ions that a name gives are not always drawn.

On to `Brc1c(NC2=NCCN2)ccc2nccnc12` [brimonidine tartrate, (5-Bromo-quinoxalin-6-yl)-(4,5-dihydro-1H-imidazol-2-yl)-amine (Brimonidine)], for which the “inhibition of acanthosis (epidermis thickness)” value by setting is: (0.2% topical, pre-treatment) “no effect”; (2% topical, pre-treatment (1 h before UV irradiation, then twice more at 23 hours apart)) −23%.
